From patent US5180735A, “Cyclohexanol derivatives, production and use thereof” (Takeda Chemical Industries, Ltd., priority 1989, dated 1993)

Columns and labels:
[1] = test system: angiogenesis due to bFGF (rat cornea); experiment: Angiogenesis inhibitory action by the rat cornea micropocket method; type: in vivo, male Sprague-Dawley rats; settings: sustained release pellet, 20 μg sample, next to bFGF pellet (250 ng) in cornea; observed after 10 days
Source text: Angiogenesis inhibitory action by the rat cornea micropocket method
Essentially the same method of Gimbrone et al. [J. National Cancer Institute 52:413-419 (1974)] was follows.
Specifically, adult male Sprague-Dawley rats (11 to 16 week old) were anesthetized with nembtal and locally anesthetized by instillation of xylocaine eyedrops onto the eyeball. The cornea was incised to a length of about 2 mm at about 2 mm inside from the corneal circumference by means of an injection needle, and a basic fibroblast growth factor (bFGF, bovine brain-derived, purified product, R & D Inc.) and a sustained release pellet containing the test sample were inserted side by side into the incision so that the bFGF pellet was located on the central side in the cornea. In the control group, the bFGF pellet and a sample-free pellet were inserted into the cornea. After 10 days, the cornea was observed under a stereoscopic microscope.
The sustained release pellets were prepared in the following manner. An ethylene-vinyl acetate copolymer (Takeda Chemical Industries, Ltd.) was dissolved in dichloromethane to a concentration of 8%. A 3 μl portion of the solution was air-dried on a glass dish, an aqueous solution of bFGF (250 ng) was then placed thereon and air-dried and, finally 3 μl of the above-mentioned ethylene-vinyl acetate copolymer solution was placed further thereon and air-dried to give a sandwich sheet. This sandwich sheet was made round into a bFGF pellet. The test sample pellets were prepared by dissolving each sample in ethanol to a concentration of 20 μg/2 μl, mixing the solution with 6 μl of an ethylene-vinyl acetate copolymer solution, air-drying the mixed solution on a glass dish and making the thus-obtained sheet round.
In the above Table 1, the number of rats subjected to the test was shown by denominator, and the number of rats whose […] due to bFGF was retarded or weakened by administration of the test sample was shown by numerator. In the judgment, +means an inhibition rate of 70% or more, and ±means that of less than 70% but exceeding 40%.

[2] = test system: M5076 cells; experiment: Antitumor test in mice inoculated subcutaneously with M5076 cells (tumor size, T/C); type: in vivo, C57BL/6 mice; settings: Mus musculus, M5076, sc, 312 h, 30 mg/kg, subcutaneous, 10 times in total; tumor size after 13 days; read-out: T/C (%) (ratio of tumor size to control group)
Procedure: C57BL/6 mice (a group consisting of 6 mice) were inoculated subcutaneously at the dorsolateral area with 2×10^6 M5076 cells, and then a test compound dissolved in a 5% gum arabic physiological saline solution was subcutaneously administered 10 times in total, i.e. 1st, 2nd, 4th, 5th, 6th, 7th, 8th, 9th, 11th and 12th day after the inoculation. After 13 days, the major axis (a) and the minor axis (b) of the tumor tissue were measured to determine the tumor size by the calculation formula of a×b^2 ×1/2. The ratio of the tumor size thus calculated to the tumor size of animals in the control group was shown by T/C (%).

## C=C(C)C(=O)NC(=O)O[C@@H]1CC[C@](O)(CCl)[C@@H]([C@@]2(C)O[C@@H]2CC=C(C)C)[C@@H]1OC [Example 3, 4-O-(methacryloylcarbamoyl)-2-(1,2-epoxy-1,5-dimethyl-4-hexenyl)-3-methoxy-1-chloromethyl-1,4-cyclohexanediol]
[1]
  Inhibitory Rate (rats whose angiogenesis due to bFGF was retarded or weakened / rats subjected to the test): 4/7
  Judgment (Angiogenesis Inhibitory Activity): ± (that of less than 70% but exceeding 40%)
[2]
  response vs control in vivo at 30 mg/kg: 36%
